The source of these data is ChEMBL document CHEMBL1158051, “Russujaponols A-F, illudoid sesquiterpenes from the fruiting body of Russula japonica” (2006).

In experiment [1] the test system is HT-1080. Nature of the experiment: Inhibition of invasion of human HT1080 cells into Matrigel at 0.17 uM. In kind it is functional.
Experiment [2] has as its system HT-1080. In words: Inhibition of invasion of human HT1080 cells into Matrigel at 3.73 uM. The class given is functional.

As a reminder, the inhibition is how much of the control response was suppressed. Read a low inhibition as little suppression. With `COc1cccc2c1C(=O)c1c(O)c3c(c(O)c1C2=O)C[C@@](O)(C(=O)CO)C[C@@H]3O[C@H]1C[C@H](N)[C@H](O)[C@H](C)O1` [DOXORUBICIN], 0.17 µM produced 52% inhibition in experiment [1].

For `C[C@H]1C(=O)[C@@H]2C[C@](C)(CO)C[C@]2(O)[C@@]2(C)CC[C@@]12O` [RUSSUJAPONOL A], at 3.73 µM the inhibition in experiment [2] was 63%.
